Test results published in the supplement of paper PMC10307832.

Legend:
Experiment in all cases: relative viability (nuclei count vs DMSO), 5 days (fraction); higher = more cells survive
[1] = compound: C1COCCN1C2=NC(=NC3=C2OC4=C3C=CC=N4)C5=CC(=CC=C5)NC(=O)C6=CN=C(C=C6)N + Cc1cc(Nc2cc(N3CCN(C)CC3)nc(Sc3ccc(NC(=O)C4CC4)cc3)n2)n[nH]1 [Tozasertib] (partner 0.1 µM)
Method in brief: (§1)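 A single step with final 0.05% Triton X-100, 1% formaldehyde and 1 ug/ml Hoechst fixed the cells and stained nuclei 5 days after treatment. Lung cancer cell lines in 1536-well plates had been treated by pin tool the day after seeding with one drug alone or a fixed anchor-drug dose plus five library-drug doses (not always all listed) in √10 steps, and nuclei were counted on 4× images. Relative viability is the ratio of nuclei in treated wells to nuclei in vehicle wells, taken as the median of duplicate plates.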

SGI-1776 + OSI-027 = compound: CN1CCC(CNc2ccc3ncc(-c4cccc(OC(F)(F)F)c4)n3n2)CC1 [SGI-1776] + COc1cccc2cc(-c3nc([C@H]4CC[C@H](C(=O)O)CC4)n4ncnc(N)c34)[nH]c12 [OSI-027] (partner 0.5 µM)
Method in brief: as §1

Entinostat + Linsitinib = compound: Nc1ccccc1NC(=O)c1ccc(CNC(=O)OCc2cccnc2)cc1 [Entinostat] + C[C@]1(O)C[C@@H](c2nc(-c3ccc4ccc(-c5ccccc5)nc4c3)c3c(N)nccn32)C1 [Linsitinib] (partner 1 µM)
Method in brief: as §1

Entinostat + Decitabine = compound: Nc1ccccc1NC(=O)c1ccc(CNC(=O)OCc2cccnc2)cc1 [Entinostat] + Nc1ncn([C@H]2C[C@H](O)[C@@H](CO)O2)c(=O)n1 [Decitabine] (partner 2 µM)
Method in brief: as §1

## NCI-H1793
[1]; first compound 0.02 µM
  relative viability: 0.314
[1]; first compound 0.06325 µM
  relative viability: 0.305
[1]; first compound 0.2 µM
  relative viability: 0.262
[1]; first compound 0.6325 µM
  relative viability: 0.29
[1]; first compound 2 µM
  relative viability: 0.279
SGI-1776 + OSI-027; first compound 0.08 µM
  relative viability: 0.258
SGI-1776 + OSI-027; first compound 0.8 µM
  relative viability: 0.253
SGI-1776 + OSI-027; first compound 2.53 µM
  relative viability: 0.31
SGI-1776 + OSI-027; first compound 8 µM
  relative viability: 0.223
Entinostat + Linsitinib; first compound 0.02 µM
  relative viability: 0.964
Entinostat + Linsitinib; first compound 0.06325 µM
  relative viability: 0.841
Entinostat + Linsitinib; first compound 0.2 µM
  relative viability: 0.834
Entinostat + Linsitinib; first compound 0.6325 µM
  relative viability: 0.698
Entinostat + Linsitinib; first compound 2 µM
  relative viability: 0.364
Entinostat + Decitabine; first compound 0.02 µM
  relative viability: 0.519
Entinostat + Decitabine; first compound 0.06325 µM
  relative viability: 0.56
Entinostat + Decitabine; first compound 0.2 µM
  relative viability: 0.383
Entinostat + Decitabine; first compound 0.6325 µM
  relative viability: 0.256
Entinostat + Decitabine; first compound 2 µM
  relative viability: 0.253

## NCI-H322M
[1]; first compound 0.02 µM
  relative viability: 0.535
[1]; first compound 0.06325 µM
  relative viability: 0.49
[1]; first compound 0.2 µM
  relative viability: 0.471
[1]; first compound 0.6325 µM
  relative viability: 0.401
[1]; first compound 2 µM
  relative viability: 0.338
SGI-1776 + OSI-027; first compound 0.08 µM
  relative viability: 0.514
SGI-1776 + OSI-027; first compound 0.8 µM
  relative viability: 0.54
SGI-1776 + OSI-027; first compound 2.53 µM
  relative viability: 0.661
SGI-1776 + OSI-027; first compound 8 µM
  relative viability: 0.475
Entinostat + Linsitinib; first compound 0.02 µM
  relative viability: 0.885
Entinostat + Linsitinib; first compound 0.06325 µM
  relative viability: 1.04
Entinostat + Linsitinib; first compound 0.2 µM
  relative viability: 0.883
Entinostat + Linsitinib; first compound 0.6325 µM
  relative viability: 0.89
Entinostat + Linsitinib; first compound 2 µM
  relative viability: 0.65
Entinostat + Decitabine; first compound 0.02 µM
  relative viability: 0.742
Entinostat + Decitabine; first compound 0.06325 µM
  relative viability: 0.722
Entinostat + Decitabine; first compound 0.2 µM
  relative viability: 0.787
Entinostat + Decitabine; first compound 0.6325 µM
  relative viability: 0.725
Entinostat + Decitabine; first compound 2 µM
  relative viability: 0.665

## PC-3 [JPC-3]
[1]; first compound 0.02 µM
  relative viability: 0.914
[1]; first compound 0.06325 µM
  relative viability: 0.932
[1]; first compound 0.2 µM
  relative viability: 0.85
[1]; first compound 0.6325 µM
  relative viability: 0.893
[1]; first compound 2 µM
  relative viability: 0.507
SGI-1776 + OSI-027; first compound 0.08 µM
  relative viability: 0.791
SGI-1776 + OSI-027; first compound 0.8 µM
  relative viability: 0.818
SGI-1776 + OSI-027; first compound 2.53 µM
  relative viability: 0.74
SGI-1776 + OSI-027; first compound 8 µM
  relative viability: 0.672
Entinostat + Linsitinib; first compound 0.02 µM
  relative viability: 0.956
Entinostat + Linsitinib; first compound 0.06325 µM
  relative viability: 0.907
Entinostat + Linsitinib; first compound 0.2 µM
  relative viability: 0.728
Entinostat + Linsitinib; first compound 0.6325 µM
  relative viability: 0.716
Entinostat + Linsitinib; first compound 2 µM
  relative viability: 0.467
Entinostat + Decitabine; first compound 0.02 µM
  relative viability: 0.778
Entinostat + Decitabine; first compound 0.06325 µM
  relative viability: 0.852
Entinostat + Decitabine; first compound 0.2 µM
  relative viability: 0.731
Entinostat + Decitabine; first compound 0.6325 µM
  relative viability: 0.573
Entinostat + Decitabine; first compound 2 µM
  relative viability: 0.55

## EPLC-272H
[1]; first compound 0.02 µM
  relative viability: 0.249
[1]; first compound 0.06325 µM
  relative viability: 0.173
[1]; first compound 0.2 µM
  relative viability: 0.175
[1]; first compound 0.6325 µM
  relative viability: 0.223
[1]; first compound 2 µM
  relative viability: 0.199
SGI-1776 + OSI-027; first compound 0.08 µM
  relative viability: 0.32
SGI-1776 + OSI-027; first compound 0.8 µM
  relative viability: 0.249
SGI-1776 + OSI-027; first compound 2.53 µM
  relative viability: 0.306
SGI-1776 + OSI-027; first compound 8 µM
  relative viability: 0.274
Entinostat + Linsitinib; first compound 0.02 µM
  relative viability: 1.2
Entinostat + Linsitinib; first compound 0.06325 µM
  relative viability: 1.22
Entinostat + Linsitinib; first compound 0.2 µM
  relative viability: 0.697
Entinostat + Linsitinib; first compound 0.6325 µM
  relative viability: 0.627
Entinostat + Linsitinib; first compound 2 µM
  relative viability: 0.405
Entinostat + Decitabine; first compound 0.02 µM
  relative viability: 0.409
Entinostat + Decitabine; first compound 0.06325 µM
  relative viability: 0.383
Entinostat + Decitabine; first compound 0.2 µM
  relative viability: 0.325
Entinostat + Decitabine; first compound 0.6325 µM
  relative viability: 0.25
Entinostat + Decitabine; first compound 2 µM
  relative viability: 0.218

## A-427
[1]; first compound 0.02 µM
  relative viability: 0.187
[1]; first compound 0.06325 µM
  relative viability: 0.225
[1]; first compound 0.2 µM
  relative viability: 0.199
[1]; first compound 0.6325 µM
  relative viability: 0.175
[1]; first compound 2 µM
  relative viability: 0.219
SGI-1776 + OSI-027; first compound 0.08 µM
  relative viability: 0.543
SGI-1776 + OSI-027; first compound 0.8 µM
  relative viability: 0.481
SGI-1776 + OSI-027; first compound 2.53 µM
  relative viability: 0.479
SGI-1776 + OSI-027; first compound 8 µM
  relative viability: 0.357
Entinostat + Linsitinib; first compound 0.02 µM
  relative viability: 1.16
Entinostat + Linsitinib; first compound 0.06325 µM
  relative viability: 1.15
Entinostat + Linsitinib; first compound 0.2 µM
  relative viability: 1.01
Entinostat + Linsitinib; first compound 0.6325 µM
  relative viability: 1.07
Entinostat + Linsitinib; first compound 2 µM
  relative viability: 0.825
Entinostat + Decitabine; first compound 0.02 µM
  relative viability: 0.536
Entinostat + Decitabine; first compound 0.06325 µM
  relative viability: 0.507
Entinostat + Decitabine; first compound 0.2 µM
  relative viability: 0.528
Entinostat + Decitabine; first compound 0.6325 µM
  relative viability: 0.477
Entinostat + Decitabine; first compound 2 µM
  relative viability: 0.438
